These results are taken from ChEMBL document CHEMBL3352102, “Synthesis and bioevaluation of 2-phenyl-4-methyl-1,3-selenazole-5-carboxylic acids as potent xanthine oxidase inhibitors” (Eur J Med Chem, 2014).

Data set [1] has as its target T1, Xanthine dehydrogenase/oxidase (Bos taurus, UniProt P80457). Kind of data set: Inhibition of bovine xanthine oxidase assessed as inhibition of uric acid formation after 30 mins by spectrophotometry.
In data set [2] the target is T1, Xanthine dehydrogenase/oxidase. The data set can be described thus: Mixed-type inhibition of reduced form of bovine xanthine oxidase assessed as inhibition of uric acid formation by Lineweaver-Burk plot. The following applies: cattle.
For data set [3] the target is unchanged. The data set can be described thus: Mixed-type inhibition of bovine xanthine oxidase assessed as inhibition of uric acid formation by Lineweaver-Burk plot.
For data set [4] the target is unchanged. Kind of data set: Mixed-type inhibition of oxidized form of bovine xanthine oxidase assessed as inhibition of uric acid formation by Lineweaver-Burk plot. Conditions: cattle; call rule not given here.
The target is the same in data set [5]. Kind of data set: Mixed-type inhibition of bovine xanthine oxidase assessed as inhibition of uric acid formation by secondary Lineweaver-Burk plot.
The target is the same in data set [6]. The data set can be described thus: Inhibition of bovine xanthine oxidase assessed as inhibition of uric acid formation at 10000 nM after 30 mins by spectrophotometry. Conditions: cattle, 0.5 h.

Each structure is given as a SMILES string.

T1 sequence (P80457 whole entry): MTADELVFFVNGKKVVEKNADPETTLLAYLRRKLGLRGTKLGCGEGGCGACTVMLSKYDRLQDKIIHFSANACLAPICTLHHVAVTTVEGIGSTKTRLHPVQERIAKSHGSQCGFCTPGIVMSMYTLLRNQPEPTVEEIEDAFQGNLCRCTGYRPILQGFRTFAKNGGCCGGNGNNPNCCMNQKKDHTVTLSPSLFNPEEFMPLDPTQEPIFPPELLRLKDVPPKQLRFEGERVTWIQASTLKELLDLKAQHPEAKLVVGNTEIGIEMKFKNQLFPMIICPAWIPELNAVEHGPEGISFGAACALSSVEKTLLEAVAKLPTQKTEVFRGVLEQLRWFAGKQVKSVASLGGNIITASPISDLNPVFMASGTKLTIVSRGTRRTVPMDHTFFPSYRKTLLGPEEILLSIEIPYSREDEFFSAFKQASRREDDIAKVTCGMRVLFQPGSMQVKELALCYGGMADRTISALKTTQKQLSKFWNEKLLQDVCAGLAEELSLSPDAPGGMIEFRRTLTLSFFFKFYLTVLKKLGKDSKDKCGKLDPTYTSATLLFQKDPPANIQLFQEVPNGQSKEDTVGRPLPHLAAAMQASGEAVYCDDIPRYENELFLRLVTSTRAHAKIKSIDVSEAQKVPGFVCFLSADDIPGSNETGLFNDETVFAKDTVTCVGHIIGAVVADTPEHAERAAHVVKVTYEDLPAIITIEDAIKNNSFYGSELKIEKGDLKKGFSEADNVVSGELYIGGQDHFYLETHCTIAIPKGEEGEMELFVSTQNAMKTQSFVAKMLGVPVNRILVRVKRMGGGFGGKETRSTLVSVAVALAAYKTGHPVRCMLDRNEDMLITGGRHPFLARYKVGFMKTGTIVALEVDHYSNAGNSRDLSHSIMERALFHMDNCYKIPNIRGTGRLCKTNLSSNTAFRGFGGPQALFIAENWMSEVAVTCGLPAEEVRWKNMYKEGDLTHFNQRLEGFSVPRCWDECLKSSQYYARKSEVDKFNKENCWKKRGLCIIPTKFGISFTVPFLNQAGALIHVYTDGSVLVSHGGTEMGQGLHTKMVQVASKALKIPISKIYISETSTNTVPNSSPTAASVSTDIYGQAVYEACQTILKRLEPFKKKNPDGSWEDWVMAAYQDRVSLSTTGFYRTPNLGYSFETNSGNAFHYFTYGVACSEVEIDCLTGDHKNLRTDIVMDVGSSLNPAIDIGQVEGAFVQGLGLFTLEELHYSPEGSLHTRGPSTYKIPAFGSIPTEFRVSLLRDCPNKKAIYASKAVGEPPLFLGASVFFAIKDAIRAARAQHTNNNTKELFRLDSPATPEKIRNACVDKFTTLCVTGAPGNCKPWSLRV

Broadly, the IC50 is the concentration that inhibits the measured activity by half. For `Cc1nc(-c2ccc(OCCC(C)C)c([N+](=O)[O-])c2)[se]c1C(=O)O`, the IC50 in data set [1] was found to be 65.6 nM.

On to `CCOc1ccc(-c2nc(C)c(C(=O)O)[se]2)cc1[N+](=O)[O-]`, for which, in data set [1], the IC50 is 82.5 nM.

As to `CCCCOc1ccc(-c2nc(C)c(C(=O)O)[se]2)cc1[N+](=O)[O-]`, the IC50 in data set [1] amounted to 49.2 nM.

With `Cc1nc(-c2ccc(OCC(C)C)c([N+](=O)[O-])c2)[se]c1C(=O)O`, in data set [1], the IC50 is 33.7 nM.

As for `C=CCOc1ccc(-c2nc(C)c(C(=O)O)[se]2)cc1[N+](=O)[O-]`, the IC50 in data set [1] amounted to 16.1 nM.

On to `Cc1nc(-c2ccc(OCc3ccccc3)c([N+](=O)[O-])c2)[se]c1C(=O)O`, for which, in data set [1], the 50% inhibitory concentration (IC50) worked out at 40.3 nM.

Regarding `CCCCOc1ccc(-c2nc(C)c(C(=O)O)[se]2)cc1C#N`, the half-maximal inhibitory concentration (IC50) in data set [1] amounted to 13.2 nM.

For orientation: Ki means the equilibrium dissociation constant of an inhibitor or competing ligand from its target. `C=CCOc1ccc(-c2nc(C)c(C(=O)O)[se]2)cc1C#N`: the “inhibition (INH)” value in data set [2] and in data set [4] was “Active” in each case. Also, the results for the inhibition constant (Ki) in data set [3] and in data set [5] were 0.9 nM and 2.3 nM, respectively. Besides, the IC50 in data set [1] amounted to 5.5 nM.

Turning to `COc1ccc(-c2nc(C)c(C(=O)O)[se]2)cc1C#N`, in data set [1], the half-maximal inhibitory concentration (IC50) was 30.6 nM.

Turning to `CCCOc1ccc(-c2nc(C)c(C(=O)O)[se]2)cc1C#N`, in data set [1], the half-maximal inhibitory concentration (IC50) came out at 16.2 nM.

In the case of `CCC(C)Oc1ccc(-c2nc(C)c(C(=O)O)[se]2)cc1C#N` (stereo not drawn), in data set [1], the IC50 worked out at 10.4 nM.

As to `CCCCCOc1ccc(-c2nc(C)c(C(=O)O)[se]2)cc1C#N`, the 50% inhibitory concentration (IC50) in data set [1] amounted to 45.6 nM.

For `C#CCOc1ccc(-c2nc(C)c(C(=O)O)[se]2)cc1C#N`, the IC50 in data set [1] was determined as 53.8 nM.

As a reminder, the inhibition is the percentage by which the read-out fell short of the control. For `C=CCOc1ccc(-c2nc(C)c(C(=O)OCC)[se]2)cc1C#N`, the inhibition at 10 µM in data set [6] was below 50%.
